{"source": "the kinase profiling compilation of Christmann-Franck et al. (2016)", "experiment_in_all_cases": "Caliper, Mobility shift assay off-chip", "key": {"CDK7 (human)": {"target": "CDK7 (human) (UniProt P50613)"}, "PBK (human)": {"target": "PBK (human) (UniProt Q96KB5)", "sequence (Q96KB5 whole entry, looked up)": "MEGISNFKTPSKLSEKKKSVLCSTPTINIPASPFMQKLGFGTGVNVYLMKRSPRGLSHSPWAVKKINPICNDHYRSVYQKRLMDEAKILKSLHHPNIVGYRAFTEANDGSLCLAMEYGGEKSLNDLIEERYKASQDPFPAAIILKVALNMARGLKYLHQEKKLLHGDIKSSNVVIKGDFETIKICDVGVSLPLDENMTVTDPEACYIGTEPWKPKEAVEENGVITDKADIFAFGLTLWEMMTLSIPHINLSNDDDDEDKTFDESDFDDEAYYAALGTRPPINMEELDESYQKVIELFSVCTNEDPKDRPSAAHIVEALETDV"}, "PRKAA1 (human)": {"target": "PRKAA1 (human) (UniProt Q13131)", "details": "compound 0.2 µM"}, "LYN (human)": {"target": "LYN (human) (UniProt P07948)", "sequence (P07948 whole entry, looked up)": "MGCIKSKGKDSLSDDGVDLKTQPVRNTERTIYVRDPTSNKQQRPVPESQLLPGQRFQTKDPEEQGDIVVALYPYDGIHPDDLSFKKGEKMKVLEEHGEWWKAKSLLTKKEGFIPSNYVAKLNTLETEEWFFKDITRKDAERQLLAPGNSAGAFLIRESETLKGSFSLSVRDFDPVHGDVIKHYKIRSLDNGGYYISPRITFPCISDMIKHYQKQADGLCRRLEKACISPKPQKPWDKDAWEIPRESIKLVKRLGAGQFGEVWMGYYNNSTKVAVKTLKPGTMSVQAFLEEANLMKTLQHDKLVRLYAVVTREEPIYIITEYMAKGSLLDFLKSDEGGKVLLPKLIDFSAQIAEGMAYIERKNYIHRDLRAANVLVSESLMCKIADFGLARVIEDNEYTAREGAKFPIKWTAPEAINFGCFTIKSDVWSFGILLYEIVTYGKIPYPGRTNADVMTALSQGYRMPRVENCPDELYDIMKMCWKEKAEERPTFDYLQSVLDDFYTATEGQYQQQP"}, "PAK1 (human)": {"target": "PAK1 (human) (UniProt Q13153)"}, "MAPKAPK2 (human)": {"target": "MAPKAPK2 (human) (UniProt P49137)"}, "EPHA4 (human)": {"target": "EPHA4 (human) (UniProt P54764)"}, "TNK1 (human)": {"target": "TNK1 (human) (UniProt Q13470)"}, "CLK1 (human)": {"target": "CLK1 (human) (UniProt P49759)"}, "CDK9 (human)": {"target": "CDK9 (human) (UniProt P50750)"}, "RPS6KA2 KD1 KD2 (human)": {"target": "RPS6KA2 KD1 KD2 (human) (UniProt Q15349)"}, "IRAK1 (human)": {"target": "IRAK1 (human) (UniProt P51617)", "sequence (P51617 whole entry, looked up)": "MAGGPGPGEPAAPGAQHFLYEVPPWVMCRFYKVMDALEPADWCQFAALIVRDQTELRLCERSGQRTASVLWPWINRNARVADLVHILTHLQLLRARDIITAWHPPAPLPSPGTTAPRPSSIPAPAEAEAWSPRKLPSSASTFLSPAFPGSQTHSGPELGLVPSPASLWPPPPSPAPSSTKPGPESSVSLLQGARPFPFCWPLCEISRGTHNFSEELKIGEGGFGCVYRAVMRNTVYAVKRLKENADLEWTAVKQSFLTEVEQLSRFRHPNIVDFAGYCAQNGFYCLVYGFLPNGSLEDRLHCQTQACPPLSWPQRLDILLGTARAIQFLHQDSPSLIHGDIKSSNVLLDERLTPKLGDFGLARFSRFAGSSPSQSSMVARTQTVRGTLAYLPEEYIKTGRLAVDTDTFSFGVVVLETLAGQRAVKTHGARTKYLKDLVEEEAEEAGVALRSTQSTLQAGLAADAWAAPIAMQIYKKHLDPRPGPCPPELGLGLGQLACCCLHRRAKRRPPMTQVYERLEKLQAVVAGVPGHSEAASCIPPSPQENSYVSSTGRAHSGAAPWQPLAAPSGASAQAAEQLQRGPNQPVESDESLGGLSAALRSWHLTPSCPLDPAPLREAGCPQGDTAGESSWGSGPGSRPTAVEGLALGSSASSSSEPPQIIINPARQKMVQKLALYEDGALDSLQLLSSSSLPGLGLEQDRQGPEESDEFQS"}, "PAK2 (human)": {"target": "PAK2 (human) (UniProt Q13177)"}, "FYN (human)": {"target": "FYN (human) (UniProt P06241)", "sequence (P06241 whole entry, looked up)": "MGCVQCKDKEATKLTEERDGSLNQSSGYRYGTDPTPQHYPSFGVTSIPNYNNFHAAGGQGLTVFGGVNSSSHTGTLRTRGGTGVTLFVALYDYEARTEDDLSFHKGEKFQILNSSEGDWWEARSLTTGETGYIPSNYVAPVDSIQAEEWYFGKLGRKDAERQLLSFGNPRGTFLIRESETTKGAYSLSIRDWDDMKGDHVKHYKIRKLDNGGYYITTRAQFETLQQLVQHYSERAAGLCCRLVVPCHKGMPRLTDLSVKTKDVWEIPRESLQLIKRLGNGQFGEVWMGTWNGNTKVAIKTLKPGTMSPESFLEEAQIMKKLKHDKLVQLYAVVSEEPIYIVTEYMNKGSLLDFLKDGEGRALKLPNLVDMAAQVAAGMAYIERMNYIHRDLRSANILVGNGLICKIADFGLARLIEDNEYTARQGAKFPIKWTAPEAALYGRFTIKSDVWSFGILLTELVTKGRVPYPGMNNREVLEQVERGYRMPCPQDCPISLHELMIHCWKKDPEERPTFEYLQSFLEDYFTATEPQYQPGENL"}, "TAOK2 (human)": {"target": "TAOK2 (human) (UniProt Q9UL54)"}, "PDGFRA (human)": {"target": "PDGFRA (human) (UniProt P16234)"}, "PAK4 (human)": {"target": "PAK4 (human) (UniProt O96013)"}, "IKBKE (human)": {"target": "IKBKE (human) (UniProt Q14164)"}, "CSK (human)": {"target": "CSK (human) (UniProt P41240)"}, "TNK2 (human)": {"target": "TNK2 (human) (UniProt Q07912)", "sequence (Q07912 whole entry, looked up)": "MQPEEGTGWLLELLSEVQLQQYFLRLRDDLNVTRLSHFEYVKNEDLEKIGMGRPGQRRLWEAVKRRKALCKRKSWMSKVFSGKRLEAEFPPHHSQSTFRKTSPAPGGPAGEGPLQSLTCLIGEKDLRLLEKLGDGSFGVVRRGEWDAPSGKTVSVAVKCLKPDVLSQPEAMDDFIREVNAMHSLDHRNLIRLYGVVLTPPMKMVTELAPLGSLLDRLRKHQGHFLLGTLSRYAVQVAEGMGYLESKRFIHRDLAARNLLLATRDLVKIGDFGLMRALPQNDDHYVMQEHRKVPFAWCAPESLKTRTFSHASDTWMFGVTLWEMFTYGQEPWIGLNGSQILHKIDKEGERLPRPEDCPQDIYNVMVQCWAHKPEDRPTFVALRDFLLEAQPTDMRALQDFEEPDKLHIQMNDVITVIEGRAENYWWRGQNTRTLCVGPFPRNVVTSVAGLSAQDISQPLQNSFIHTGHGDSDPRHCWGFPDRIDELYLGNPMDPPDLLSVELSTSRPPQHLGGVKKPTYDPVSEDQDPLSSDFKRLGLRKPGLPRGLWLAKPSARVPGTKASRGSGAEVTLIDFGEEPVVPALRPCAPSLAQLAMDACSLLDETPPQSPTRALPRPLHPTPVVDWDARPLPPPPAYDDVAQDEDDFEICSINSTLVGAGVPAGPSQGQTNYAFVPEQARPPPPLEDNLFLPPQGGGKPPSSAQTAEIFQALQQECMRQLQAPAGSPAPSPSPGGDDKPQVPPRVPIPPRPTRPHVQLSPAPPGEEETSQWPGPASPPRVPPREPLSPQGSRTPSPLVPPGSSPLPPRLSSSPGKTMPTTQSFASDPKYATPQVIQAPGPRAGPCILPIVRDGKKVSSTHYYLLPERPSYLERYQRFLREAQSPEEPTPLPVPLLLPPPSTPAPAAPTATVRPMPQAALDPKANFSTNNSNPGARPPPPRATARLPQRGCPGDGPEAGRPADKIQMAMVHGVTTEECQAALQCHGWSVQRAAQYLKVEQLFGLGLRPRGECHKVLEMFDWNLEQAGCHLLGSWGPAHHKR"}, "PDGFRB (human)": {"target": "PDGFRB (human) (UniProt P09619)"}, "NIM1 (human)": {"target": "NIM1 (human) (UniProt Q8IY84)", "sequence (Q8IY84 whole entry, looked up)": "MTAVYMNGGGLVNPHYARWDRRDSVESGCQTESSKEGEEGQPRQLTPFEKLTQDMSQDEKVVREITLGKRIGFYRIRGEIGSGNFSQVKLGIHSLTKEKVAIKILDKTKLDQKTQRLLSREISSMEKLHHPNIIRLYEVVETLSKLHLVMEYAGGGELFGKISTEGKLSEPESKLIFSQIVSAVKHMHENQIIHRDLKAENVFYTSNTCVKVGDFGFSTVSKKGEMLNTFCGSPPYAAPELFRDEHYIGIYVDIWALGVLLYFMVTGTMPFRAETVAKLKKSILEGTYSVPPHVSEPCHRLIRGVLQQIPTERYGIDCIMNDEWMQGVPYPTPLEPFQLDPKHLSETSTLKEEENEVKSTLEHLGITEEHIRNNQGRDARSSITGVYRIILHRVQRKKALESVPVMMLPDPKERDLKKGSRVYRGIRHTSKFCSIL"}, "MAP4K2 (human)": {"target": "MAP4K2 (human) (UniProt Q12851)"}, "CSNK2A1 (human)": {"target": "CSNK2A1 (human) (UniProt P68400)", "sequence (P68400 whole entry, looked up)": "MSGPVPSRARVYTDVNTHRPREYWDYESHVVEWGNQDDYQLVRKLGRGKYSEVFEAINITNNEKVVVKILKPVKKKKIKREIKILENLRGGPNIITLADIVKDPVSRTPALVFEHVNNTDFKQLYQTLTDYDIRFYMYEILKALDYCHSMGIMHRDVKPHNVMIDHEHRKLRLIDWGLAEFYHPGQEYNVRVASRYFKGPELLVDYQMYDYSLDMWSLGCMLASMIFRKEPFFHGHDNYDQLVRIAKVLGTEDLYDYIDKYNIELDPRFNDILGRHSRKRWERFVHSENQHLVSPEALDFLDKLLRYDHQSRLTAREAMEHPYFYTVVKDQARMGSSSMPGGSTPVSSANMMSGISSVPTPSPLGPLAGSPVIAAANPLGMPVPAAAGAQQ"}, "INSRR (human)": {"target": "INSRR (human) (UniProt P14616)"}, "TSSK2 (human)": {"target": "TSSK2 (human) (UniProt Q96PF2)"}, "PIK3CA PIK3R1 (human)": {"target": "PIK3CA PIK3R1 (human) (UniProt P27986+P42336)"}, "SIK2 (human)": {"target": "SIK2 (human) (UniProt Q9H0K1)"}, "CDK2 (human)": {"target": "CDK2 (human) (UniProt P24941)"}, "KIT (human)": {"target": "KIT (human) (UniProt P10721)"}, "ABL2 (human)": {"target": "ABL2 (human) (UniProt P42684)"}, "TNIK (human)": {"target": "TNIK (human) (UniProt Q9UKE5)"}, "CSF1R (human)": {"target": "CSF1R (human) (UniProt P07333)", "sequence (P07333 whole entry, looked up)": "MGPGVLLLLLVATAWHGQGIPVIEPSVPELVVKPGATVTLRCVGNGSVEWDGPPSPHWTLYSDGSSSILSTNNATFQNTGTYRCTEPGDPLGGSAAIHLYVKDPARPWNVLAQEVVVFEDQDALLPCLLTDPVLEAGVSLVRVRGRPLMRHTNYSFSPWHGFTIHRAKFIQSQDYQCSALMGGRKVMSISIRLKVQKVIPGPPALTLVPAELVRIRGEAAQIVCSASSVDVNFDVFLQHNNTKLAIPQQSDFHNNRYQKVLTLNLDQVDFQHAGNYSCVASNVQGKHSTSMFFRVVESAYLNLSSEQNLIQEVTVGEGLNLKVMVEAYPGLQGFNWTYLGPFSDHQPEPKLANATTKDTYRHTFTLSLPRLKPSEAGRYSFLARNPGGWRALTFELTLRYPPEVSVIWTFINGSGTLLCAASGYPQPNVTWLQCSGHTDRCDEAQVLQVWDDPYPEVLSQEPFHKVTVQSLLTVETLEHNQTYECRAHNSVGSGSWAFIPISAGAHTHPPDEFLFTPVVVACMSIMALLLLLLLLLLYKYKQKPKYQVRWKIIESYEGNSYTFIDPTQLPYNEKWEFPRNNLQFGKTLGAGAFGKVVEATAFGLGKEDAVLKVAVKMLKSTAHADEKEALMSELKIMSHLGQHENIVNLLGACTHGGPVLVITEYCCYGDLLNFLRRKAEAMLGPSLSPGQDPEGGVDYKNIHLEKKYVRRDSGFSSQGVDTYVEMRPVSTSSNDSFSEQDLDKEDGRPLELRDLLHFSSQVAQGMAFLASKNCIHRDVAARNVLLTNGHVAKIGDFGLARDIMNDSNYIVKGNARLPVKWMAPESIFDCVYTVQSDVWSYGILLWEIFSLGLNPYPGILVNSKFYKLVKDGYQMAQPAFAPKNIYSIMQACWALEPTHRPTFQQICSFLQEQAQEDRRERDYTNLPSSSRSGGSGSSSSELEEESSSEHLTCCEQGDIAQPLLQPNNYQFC"}, "PLK1 (human)": {"target": "PLK1 (human) (UniProt P53350)"}}, "note": "Where “and” joins values, the source holds several entries; their conditions need not be identical. Equal values may be shown once.", "data": [{"molecule": "COc1cc2c(Oc3ccc4[nH]c(C)cc4c3F)ncnc2cc1OCCCN1CCCC1", "values": [{"measurement": "inhibition", "setting": "CDK7 (human); compound 0.02 µM", "value": -5.4, "unit": "%"}, {"measurement": "inhibition", "setting": "CDK7 (human); compound 0.2 µM", "value": -4.5, "unit": "%"}, {"measurement": "inhibition", "setting": "PBK (human); compound 0.02 µM", "value": 0.1, "unit": "%"}, {"measurement": "inhibition", "setting": "PBK (human); compound 0.2 µM", "value": -6.1, "unit": "%"}, {"measurement": "inhibition", "setting": "PRKAA1 (human)", "value": 7.1, "unit": "%"}, {"measurement": "inhibition", "setting": "LYN (human); compound 0.02 µM", "value": "13.8% and 15.6%"}, {"measurement": "inhibition", "setting": "LYN (human); compound 0.2 µM", "value": "53.8% and 53.9%"}, {"measurement": "inhibition", "setting": "PAK1 (human); compound 0.02 µM", "value": -2.7, "unit": "%"}, {"measurement": "inhibition", "setting": "PAK1 (human); compound 0.2 µM", "value": -3, "unit": "%"}, {"measurement": "inhibition", "setting": "MAPKAPK2 (human); compound 0.02 µM", "value": 6.1, "unit": "%"}, {"measurement": "inhibition", "setting": "MAPKAPK2 (human); compound 0.2 µM", "value": -1.5, "unit": "%"}, {"measurement": "inhibition", "setting": "EPHA4 (human); compound 0.02 µM", "value": -4.1, "unit": "%"}, {"measurement": "inhibition", "setting": "EPHA4 (human); compound 0.2 µM", "value": -2.4, "unit": "%"}, {"measurement": "inhibition", "setting": "TNK1 (human); compound 0.02 µM", "value": -2.8, "unit": "%"}, {"measurement": "inhibition", "setting": "TNK1 (human); compound 0.2 µM", "value": -1.2, "unit": "%"}, {"measurement": "inhibition", "setting": "CLK1 (human); compound 0.02 µM", "value": 8.1, "unit": "%"}, {"measurement": "inhibition", "setting": "CLK1 (human); compound 0.2 µM", "value": -6.1, "unit": "%"}, {"measurement": "inhibition", "setting": "CDK9 (human); compound 0.02 µM", "value": -3.2, "unit": "%"}, {"measurement": "inhibition", "setting": "CDK9 (human); compound 0.2 µM", "value": -3.3, "unit": "%"}, {"measurement": "inhibition", "setting": "RPS6KA2 KD1 KD2 (human); compound 0.02 µM", "value": 3.9, "unit": "%"}, {"measurement": "inhibition", "setting": "RPS6KA2 KD1 KD2 (human); compound 0.2 µM", "value": 2.2, "unit": "%"}, {"measurement": "inhibition", "setting": "IRAK1 (human); compound 0.02 µM", "value": -19.1, "unit": "%"}, {"measurement": "inhibition", "setting": "IRAK1 (human); compound 0.2 µM", "value": -7.5, "unit": "%"}, {"measurement": "inhibition", "setting": "PAK2 (human); compound 0.02 µM", "value": -4.1, "unit": "%"}, {"measurement": "inhibition", "setting": "PAK2 (human); compound 0.2 µM", "value": 3.5, "unit": "%"}, {"measurement": "inhibition", "setting": "FYN (human); compound 0.02 µM", "value": 13.7, "unit": "%"}, {"measurement": "inhibition", "setting": "FYN (human); compound 0.2 µM", "value": 35.9, "unit": "%"}, {"measurement": "inhibition", "setting": "TAOK2 (human); compound 0.02 µM", "value": 3.1, "unit": "%"}, {"measurement": "inhibition", "setting": "TAOK2 (human); compound 0.2 µM", "value": 3.3, "unit": "%"}, {"measurement": "inhibition", "setting": "PDGFRA (human); compound 0.02 µM", "value": 39.2, "unit": "%"}, {"measurement": "inhibition", "setting": "PDGFRA (human); compound 0.2 µM", "value": 86.9, "unit": "%"}, {"measurement": "inhibition", "setting": "PAK4 (human); compound 0.02 µM", "value": 6.5, "unit": "%"}, {"measurement": "inhibition", "setting": "PAK4 (human); compound 0.2 µM", "value": 0, "unit": "%"}, {"measurement": "inhibition", "setting": "IKBKE (human); compound 0.02 µM", "value": -6.2, "unit": "%"}, {"measurement": "inhibition", "setting": "IKBKE (human); compound 0.2 µM", "value": -5.1, "unit": "%"}, {"measurement": "inhibition", "setting": "CSK (human); compound 0.02 µM", "value": -6.7, "unit": "%"}, {"measurement": "inhibition", "setting": "CSK (human); compound 0.2 µM", "value": -6.3, "unit": "%"}, {"measurement": "inhibition", "setting": "TNK2 (human); compound 0.02 µM", "value": -6.7, "unit": "%"}, {"measurement": "inhibition", "setting": "TNK2 (human); compound 0.2 µM", "value": -5.4, "unit": "%"}, {"measurement": "inhibition", "setting": "PDGFRB (human); compound 0.02 µM", "value": 17.9, "unit": "%"}, {"measurement": "inhibition", "setting": "PDGFRB (human); compound 0.2 µM", "value": 61.8, "unit": "%"}, {"measurement": "inhibition", "setting": "NIM1 (human); compound 0.02 µM", "value": 15.8, "unit": "%"}, {"measurement": "inhibition", "setting": "NIM1 (human); compound 0.2 µM", "value": -9.8, "unit": "%"}, {"measurement": "inhibition", "setting": "MAP4K2 (human); compound 0.02 µM", "value": 2.6, "unit": "%"}, {"measurement": "inhibition", "setting": "MAP4K2 (human); compound 0.2 µM", "value": 18.4, "unit": "%"}, {"measurement": "inhibition", "setting": "CSNK2A1 (human); compound 0.02 µM", "value": -0.1, "unit": "%"}, {"measurement": "inhibition", "setting": "CSNK2A1 (human); compound 0.2 µM", "value": -0.5, "unit": "%"}, {"measurement": "inhibition", "setting": "INSRR (human); compound 0.02 µM", "value": -0.3, "unit": "%"}, {"measurement": "inhibition", "setting": "INSRR (human); compound 0.2 µM", "value": 13.3, "unit": "%"}, {"measurement": "inhibition", "setting": "TSSK2 (human); compound 0.02 µM", "value": -4.1, "unit": "%"}, {"measurement": "inhibition", "setting": "TSSK2 (human); compound 0.2 µM", "value": -3.4, "unit": "%"}, {"measurement": "inhibition", "setting": "PIK3CA PIK3R1 (human); compound 0.02 µM", "value": 26.6, "unit": "%"}, {"measurement": "inhibition", "setting": "PIK3CA PIK3R1 (human); compound 0.2 µM", "value": 34.9, "unit": "%"}, {"measurement": "inhibition", "setting": "SIK2 (human); compound 0.02 µM", "value": 3.7, "unit": "%"}, {"measurement": "inhibition", "setting": "SIK2 (human); compound 0.2 µM", "value": 16.5, "unit": "%"}, {"measurement": "inhibition", "setting": "CDK2 (human); compound 0.02 µM", "value": "1% and -0.2%"}, {"measurement": "inhibition", "setting": "CDK2 (human); compound 0.2 µM", "value": "-3% and -3.9%"}, {"measurement": "inhibition", "setting": "KIT (human); compound 0.02 µM", "value": 64.1, "unit": "%"}, {"measurement": "inhibition", "setting": "KIT (human); compound 0.2 µM", "value": 71.4, "unit": "%"}, {"measurement": "inhibition", "setting": "ABL2 (human); compound 0.02 µM", "value": 5.6, "unit": "%"}, {"measurement": "inhibition", "setting": "ABL2 (human); compound 0.2 µM", "value": 34.5, "unit": "%"}, {"measurement": "inhibition", "setting": "TNIK (human); compound 0.02 µM", "value": -0.5, "unit": "%"}, {"measurement": "inhibition", "setting": "TNIK (human); compound 0.2 µM", "value": 24.9, "unit": "%"}, {"measurement": "inhibition", "setting": "CSF1R (human); compound 0.02 µM", "value": 18.4, "unit": "%"}, {"measurement": "inhibition", "setting": "CSF1R (human); compound 0.2 µM", "value": 36.8, "unit": "%"}, {"measurement": "inhibition", "setting": "PLK1 (human); compound 0.02 µM", "value": -0.1, "unit": "%"}, {"measurement": "inhibition", "setting": "PLK1 (human); compound 0.2 µM", "value": -2, "unit": "%"}]}]}
